Data taken from US11932885B2, “Use of glutamine synthetase for treating hyperammonemia” (Thoeris GmbH, priority 2017, dated 2024).

Assays:
BDL rats [1] = test: Ammonia blood levels in BDL rats; format: in vivo; conditions: BDL rats on hyperammonemic diet
Experimental: All experiments were performed in accordance with the Animals (Scientific Procedures) Act of 1986, which was revised according to the European Directive2010/63/EU. All animals received humane care according to the criteria outlined in the Guide for the Care and Use of Laboratory Animals (National Institutes of Health publication 86-23; revised 1985). All the animals used in these experiments were Male Sprague-Dawley rats (body weight, 250 g at the beginning of the experiments) were obtained from Charles River Laboratories (Kent, UK) and divided into 5 groups: bile duct ligated animals+ammonia+saline serum (BDL+HA+SS, n=6), bile duct ligated animals+ammonia+sodium phenylacetate (BDL+HA+SP, n=6), bile duct ligated animals+ammonia+sodium phenylacetate+glutamine synthetase (BDL+HA+SP+GS, n=5), bile duct ligated animals+ammonia+glutamine synthetase (BDL+HA+GS, n=6), sham-operated animals+glutamine synthetase (SHAM+GS, n=5). Treatment comprising SP and GS may be referred to as “COMBO”. […]
Plasma samples were collected from the leg vein at different timepoints in all groups. The timepoints were counted after the treatment with glutamine synthetase as follows: 6 hours, 24 hours, 48 hours and 5 days. […]

BDL rats [2] = test: RotaRod-Accelerod test in BDL rats; format: in vivo
Experimental: (§1) All experiments were performed in accordance with the Animals (Scientific Procedures) Act of 1986, which was revised according to the European Directive2010/63/EU. All animals received humane care according to the criteria outlined in the Guide for the Care and Use of Laboratory Animals (National Institutes of Health publication 86-23; revised 1985). All the animals used in these experiments were Male Sprague-Dawley rats (body weight, 250 g at the beginning of the experiments) were obtained from Charles River Laboratories (Kent, UK) and divided into 5 groups: bile duct ligated animals+ammonia+saline serum (BDL+HA+SS, n=6), bile duct ligated animals+ammonia+sodium phenylacetate (BDL+HA+SP, n=6), bile duct ligated animals+ammonia+sodium phenylacetate+glutamine synthetase (BDL+HA+SP+GS, n=5), bile duct ligated animals+ammonia+glutamine synthetase (BDL+HA+GS, n=6), sham-operated animals+glutamine synthetase (SHAM+GS, n=5). Treatment comprising SP and GS may be referred to as “COMBO”.
This test of motor performance consists of a motor-driven rotating rod that enables us to assess motor coordination and resistance to fatigue (Jones and Roberts 1968). […] Latency to fall off the rod and the actual rotation speed were recorded in the pre- and post-treatment conditions for all groups after 1 hour treatment.

BDL rats [3] = test: Brain oedema in the prefrontal cortex of BDL rats (dry weight technique); format: in vivo; conditions: versus control without treatment
Experimental: as §1
This was measured using the dry weight technique as described previously. […] The dry weight was determined after Eppendorf's loaded with individual brain samples were dried in an oven at 60° C. for 7 days. Tissue water content was then calculated as % H2O=(1-dry wt/wet wt)×100%.

[4] = mouse, in vivo, sc, 2.5 mg/kg
Experimental: The ELISA was conducted according to the protocol outlined by the manufacturer (Abcam PEG ELISA kit, ab133065). […] N=2 animals in each group.

O=C([O-])Cc1ccccc1.[Na+] [SP, sodium phenylacetate]
ammonia levels in the blood (BDL rats [1]): significant reduction of ammonia levels in the blood | rotarod grip test performance (BDL rats [2]): did not lead to stastically significant effects | brain oedema in the prefrontal cortex (BDL rats [3]): did not statistically significantly reduce the swelling

wt GS: Non-conjugated human glutamine synthetase with N-terminal His-tag and GGGGS linker (SEQ ID NO: 4), expressed in E. coli
plasma level (PEG ELISA) [4]: very low or undetectable levels
